Test system: MDR1-MDCK cell monolayers
Assay: MDR1-MDCK monolayer permeability assay
Format: in vitro ADME
Conditions: judged from MDR1-MDCK efflux ratio

`N#CCNC(=O)[C@H](Cc1c[nH]cn1)NC(=O)OCc1ccccc1` [Compound 10] was tested. Which “P-gp mediated efflux (in words)” value did it give?
The value was “subject to P-gp mediated efflux”.
